Target: T1, NAD(+) hydrolase SARM1 (Homo sapiens, UniProt Q6SZW1)
T1 sequence (Q6SZW1 whole entry): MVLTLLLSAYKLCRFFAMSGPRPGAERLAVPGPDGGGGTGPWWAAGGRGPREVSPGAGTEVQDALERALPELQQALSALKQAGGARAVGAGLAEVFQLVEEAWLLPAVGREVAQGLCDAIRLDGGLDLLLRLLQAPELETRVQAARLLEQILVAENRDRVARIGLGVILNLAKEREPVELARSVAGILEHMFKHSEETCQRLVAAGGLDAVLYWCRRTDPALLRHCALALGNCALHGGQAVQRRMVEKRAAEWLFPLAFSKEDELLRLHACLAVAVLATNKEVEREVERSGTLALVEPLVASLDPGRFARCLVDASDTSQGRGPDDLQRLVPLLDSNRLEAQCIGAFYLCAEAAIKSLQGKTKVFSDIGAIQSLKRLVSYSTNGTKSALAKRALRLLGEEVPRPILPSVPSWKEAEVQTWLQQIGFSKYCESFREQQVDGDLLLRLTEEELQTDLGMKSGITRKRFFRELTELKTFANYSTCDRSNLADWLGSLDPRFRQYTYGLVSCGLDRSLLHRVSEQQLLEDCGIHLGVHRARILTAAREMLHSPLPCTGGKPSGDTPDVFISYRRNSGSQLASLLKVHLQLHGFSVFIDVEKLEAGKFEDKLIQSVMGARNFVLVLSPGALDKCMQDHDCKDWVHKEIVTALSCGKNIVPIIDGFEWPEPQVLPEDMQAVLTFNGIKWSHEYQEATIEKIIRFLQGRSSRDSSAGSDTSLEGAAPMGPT
Test: Biochemical Assay of the Compounds
Experimental: Preparation of full-length SARM1 (FL-SARM1) lysate: HEK293T cells (ATCC: CRL-3216) were grown on 150 mm TC-treated dishes to 80-90% confluency in complete DMEM (DMEM (Thermo Fisher: 11965175) supplemented with 10% HI-FBS (VWR: 10802-772), 1x Pen/Strep (Thermo Fisher: 15140122), 1x NEAA (Thermo Fisher: 1140050), 1x glutamax (Thermo Fisher: 35050061), and 1 mM sodium pyruvate (Thermo Fisher: 11360070)) at 37 °C and 5% CO2. One hour prior to transfection, the media was replaced with fresh, 37 °C complete DMEM (20 mL per one 150 mm dish) supplemented with additional 10mM glucose (Alfa Aesar AAJ60067EQE). Per one 150 mm dish, 30 µg FL-SARM1 (SEQ. ID.1; cloned in-house) plasmid was dissolved in 1 mL DMEM at ambient temperature and were mixed by inverting the tube 8-10 times.90 µL of GenJet™ in vitro DNA transfection reagent (Ver2) was dissolved in 1 mL DMEM at ambient temperature and were mixed by inverting the tube 8-10 times. The plasmid and transfection agent solutions were combined, mixed by 8-10 inversions and incubated for 10 minutes at ambient temperature.2 mL of this transfection mixture was added to each dish containing HEK293T cells as prepared above followed by a gentle mixing of 4-5 horizontal rotations. The dishes were incubated at 37 °C and 5% CO2 for 24 h. The dishes were removed from the incubator, the medium was aspirated and the cells were scraped off using cell scrapers in ice-cold 1x PBS (5 mL/dish, Thermo Fisher Scientific 10010023). The collected cells were centrifuged at 300 g for 5 minutes at 4 °C. The supernatant was aspirated and the pellet was frozen at -80 °C until needed. The cell pellet from 30 dishes was dissolved in 30 mL 1x PBS supplemented with 4 tablets of Complete, Mini EDTA-free protease inhibitor cocktail at 4 °C. This mixture was sonicated on ice for 10 minutes at 50% amplitude with a 1 second on/1 second off interval using a Model 120 sonicator (Thermo Fisher Scientific, FB120110). The lysate was centrifuged at 16000 g for 10 minutes at 4 °C.

| IC50 [nM] | SMILES |
| --- | --- |
| < 1000 | C[C@]1(O)CC[C@@H](c2cc(NC(=O)N3C4CC3CC(C(F)(F)F)C4)ccc2Cl)C1 (some centres not stated) [WO2025054369, Example 66] |
| < 1000 | N#C[C@H]1CC[C@H]1c1cc(NC(=O)N2C3CCC2CC(C(F)(F)F)C3)ccc1Cl (relative stereo; form 1) [WO2025054369, Example 44] |
| 5500 | C[C@@H]1C[C@@H]2C[C@H](C1)N2C(=O)Nc1ccc(Cl)c(N2CCCC2=O)c1 [WO2025054369, Example 93] |
| 5500 | CC1CC2CC(C1)N2C(=O)Nc1ccc(Cl)c([C@H]2CC[C@H]2C(F)F)c1 (some centres not stated) [WO2025054369, Example 41] |
| 5500 | CC1CC2CC(C1)N2C(=O)Nc1ccc(Cl)c([C@@H]2CC[C@H]2n2nccn2)c1 (relative stereo) [WO2025054369, Example 29] |
| < 1000 | CC1CC2CC(C1)N2C(=O)Nc1ccc(Cl)c([C@H]2CCC[C@@H]2C#N)c1 (some centres not stated) [WO2025054369, Example 62] |
| < 1000 | CC1CC2CC(C1)N2C(=O)Nc1ccc(Cl)c(N2CC[C@@H]2C#N)c1 (some centres not stated) [WO2025054369, Example 71] |
| < 1000 | Cc1noc(C23CC(C)CC(C2)N3C(=O)Nc2ccc(Cl)c(C3CCCC3)c2)n1 (configuration not stated) [WO2025054369, Example 82] |
| < 1000 | CC1CC2CC(C1)N2C(=O)Nc1ccc(C(F)(F)F)c(C2CCC2)c1 (configuration not stated) [WO2025054369, Example 75] |
| < 1000 | N#C[C@H]1CC[C@@H]1c1cc(NC(=O)N2C3CC2CC(C(F)(F)F)C3)ccc1C(F)(F)F (some centres not stated) [WO2025054369, Example 54] |
| < 1000 | Cc1ccc(NC(=O)N2C3CC(C)CC2C3)cc1[C@H]1CC[C@H]1C#N (some centres not stated) [WO2025054369, Example 8] |
| < 1000 | Cc1noc(C23CC(C)CC(C2)N3C(=O)Nc2ccc(Cl)c(C3CCC3)c2)n1 (configuration not stated) [WO2025054369, Example 80] |
| 5500 | Cc1nnc(C23CC(C)CC(C2)N3C(=O)Nc2ccc(Cl)c([C@@H]3C[C@@H]3C#N)c2)o1 (some centres not stated) [WO2025054369, Example 16] |
| 5500 | CC1CC2CC(C1)N2C(=O)Nc1ccc(Cl)c(C(C)(C)O)c1 (configuration not stated) [WO2025054369, Example 81] |
| < 1000 | N#C[C@@H]1CC[C@@H]1c1cc(NC(=O)N2C3CC2CC(C(F)(F)F)C3)ccc1Cl (some centres not stated) [WO2025054369, Example 33] |
| < 1000 | CC1CC2CC(C1)N2C(=O)Nc1ccc(Cl)c([C@@H]2CC[C@H]2n2ccnn2)c1 (relative stereo) [WO2025054369, Example 27] |
| < 1000 | CC1CC2CC(C1)N2C(=O)Nc1ccc(Cl)c([C@H]2C[C@H](F)C2)c1 (some centres not stated) [WO2025054369, Example 48] |
| < 1000 | CC1CC2CC(C1)N2C(=O)Nc1ccc(Cl)c(C2CCC2(F)F)c1 (configuration not stated) [WO2025054369, Example 76] |
| < 1000 | CC1CC2CC(C1)N2C(=O)Nc1ccc(Cl)c(N2CC[C@@H](O)C2)c1 (some centres not stated) [WO2025054369, Example 87] |
| < 1000 | CC1CC2CC(C1)N2C(=O)Nc1ccc(Cl)c([C@H]2CC[C@@H]2C(F)F)c1 (some centres not stated) [WO2025054369, Example 50] |
| 5500 | N#C[C@H]1CC[C@H]1c1cc(NC(=O)N2C3CC2CC(C(F)(F)F)C3)ccc1Cl (some centres not stated) [WO2025054369, Example 56] |

| IC50 [nM] | SMILES |
| --- | --- |
| > 10000 | Cc1nnc([C@]23CCC[C@H](C2)N3C(=O)Nc2ccc(Cl)c(C3CCC3)c2)o1 [WO2025054369, Example 58] |
| < 1000 | C[C@@H]1C[C@@H]2C[C@H](C1)N2C(=O)Nc1ccc(Cl)c(N2CCC2)c1 [WO2025054369, Example 95] |
| < 1000 | CC1CC2CC(C1)N2C(=O)Nc1ccc(C(F)(F)F)c(N2CC(O)C2)c1 (configuration not stated) [WO2025054369, Example 90] |
| < 1000 | C[C@@]1(O)CC[C@H](c2cc(NC(=O)N3C4CC3CC(C(F)(F)F)C4)ccc2Cl)C1 (some centres not stated) [WO2025054369, Example 67] |
| 5500 | N#C[C@H]1CC[C@H]1c1cc(NC(=O)N2C3CC2CC(C(F)(F)F)C3)ccc1C(F)(F)F (some centres not stated) [WO2025054369, Example 52] |
| < 1000 | CC1CC2CC(C1)N2C(=O)Nc1cc(F)c(Cl)c([C@H]2CC[C@H]2C#N)c1 (some centres not stated) [WO2025054369, Example 35] |
| 5500 | Cc1ccc(NC(=O)N2C3CCCC2C3)cc1C1CC1 [WO2025054369, Example 22] |
| > 10000 | Cc1ccc(NC(=O)CC2CCC2)cc1C1CCC1 [WO2025054369, Example 11] |
| < 1000 | CC1CC2CC(C1)N2C(=O)Nc1ccc(Cl)c(C2CC(O)C2)c1 (configuration not stated) [WO2025054369, Example 78] |
| < 1000 | CC1CC2CC(C1)N2C(=O)Nc1ccc(Cl)c([C@H]2CCC[C@H]2C#N)c1 (some centres not stated) [WO2025054369, Example 61] |
| < 1000 | CC1CC2CC(C1)N2C(=O)Nc1ccc(Cl)c([C@@H]2CCC[C@H]2C#N)c1 (some centres not stated) [WO2025054369, Example 63] |
| < 1000 | CC1CC2CC(C1)N2C(=O)Nc1ccc(Cl)c([C@@H]2CC[C@]2(C)O)c1 (some centres not stated) [WO2025054369, Example 46] |
| < 1000 | Cc1nnc([C@@]23C[C@@H](C)C[C@@H](C2)N3C(=O)Nc2ccc(Cl)c(N3CC(O)C3)c2)o1 [WO2025054369, Example 70] |
| < 1000 | CC1CC2CC(C1)N2C(=O)Nc1ccc(Cl)c([C@@H]2CCC[C@@H]2C#N)c1 (some centres not stated) [WO2025054369, Example 60] |
| < 1000 | CC1CC2CC(C1)N2C(=O)Nc1ccc(Cl)c([C@H]2C[C@H](O)C2)c1 (some centres not stated) [WO2025054369, Example 36] |
| 5500 | C[C@@H]1C[C@@H]2C[C@H](C1)N2C(=O)Nc1ccc(Cl)c(N2CCOC2=O)c1 [WO2025054369, Example 94] |
| < 1000 | Cc1ccc(NC(=O)N2C3CC(C)CC2C3)cc1[C@@H]1CC[C@@H]1C#N (some centres not stated) [WO2025054369, Example 7] |
| < 1000 | Cc1nnc(C23CC(C)CC(C2)N3C(=O)Nc2ccc(C(F)(F)F)c(C3CC(F)(F)C3)c2)o1 (configuration not stated) [WO2025054369, Example 25] |
| < 1000 | C[C@@H]1C[C@@H]2C[C@H](C1)N2C(=O)Nc1ccc(Cl)c(N2CCNC2=O)c1 [WO2025054369, Example 96] |
| < 1000 | O=C(Nc1ccc(Cl)c([C@H]2C[C@@H](O)C2)c1)N1C2CC1CC(C(F)(F)F)C2 (some centres not stated) [WO2025054369, Example 43] |
| < 1000 | O=C(Nc1ccc(Cl)c([C@H]2C[C@H](O)C2)c1)N1C2CC1CC(C(F)(F)F)C2 (some centres not stated) [WO2025054369, Example 42] |
